Results: patent US5002959A, “BU-4146T antibiotic” (Bristol-Myers Squibb Company, priority 1989, dated 1991)
In brackets after ≈: the same amount, converted by molar mass. Read-outs that look alike come from different tables or passages of the source.

Key:
[1] = Cytotoxicity of hydrogenated derivative; format: cell-based
[2] = tested on: murine and human tumor cells (B16-F10, Moser, HCT-116); assay: In vitro cytotoxicity, comparison over the tumor cell lines; format: cell-based; settings: versus mitomycin C; approximately
Protocol: (§1) B16-FIO, Moser and HCT-116 cells were harvested and implanted into wells of 96-well microtiter plate with test materials at the inoculum sizes of 3×10^4, 6×10^4 and 6×10^4 cell/ml, respectively. They were incubated at 37° C. in a humidified atmosphere of 5% carbon dioxide and 95% air for 72 hours. The cytotoxicity against the tumor cells was determined colorimetrically at 540 nm after staining viable cells.

[3] = tested on: RNA synthesis in B16-F10 melanoma cells; assay: Inhibition of macromolecule synthesis in B16-F10 melanoma cells: RNA; format: cell-based, murine; settings: Mus musculus, 14C-uridine, 4 hours
Protocol: (§2) Inhibitory effects of BU-4146T on the macromolecule (DNA, RNA and protein) synthesis were determined in cultured B16-FlO melanoma cells. B16-FlO cells (10^5 cells/ml) were incubated with the compound at 37° C. for 3.5 hours (for DNA synthesis) or 4 hours (for RNA and protein synthesis). Labelled presursor, ^3 H-thymidine, ^14 C-uridine or ^3 H-leucine was added to the culture and further incubated for 30 minutes (for DNA) or 60 minutes (for RNA and protein). After washing with chilled 5% trichloroacetic acid solution, the radio activity incorporated into the acid-insoluble fraction of the tumor cells was determined by a liquid scintillation counter.

fungi = assay: Antifungal activity as a whole (serial agar dilution); format: cell-based; settings: versus streptimidone
Protocol: (§3) The minimum inhibitory concentrations (MICs) of BU-4146T were determined against various bacteria and fungi by the serial agar dilution method. Nutrient agar (Eiken) was used for bacteria and Sabouraud dextrose agar (Difco) for fungi. The inoculum size was adjusted to 10^2 -10^4 cfu/ml for bacteria and 10^3 cfu/ml for fungi.

[4] = tested on: Moser (human colorectal carcinoma) cells; assay: In vitro cytotoxicity; format: cell-based; settings: 72 hours
Protocol: as §1

[5] = tested on: B16-F10 (murine melanoma) cells; assay: In vitro cytotoxicity; format: cell-based; settings: Mus musculus; B16-F10, 72 hours
Protocol: as §1

[6] = tested on: HCT-116 (human colon carcinoma) cells; assay: In vitro cytotoxicity; format: cell-based; settings: HCT-116, 72 hours
Protocol: as §1

Petriellidium boydii = assay: Antifungal MIC by serial agar dilution method; format: cell-based; settings: Scedosporium boydii; strain IF08078
Protocol: as §3

Sporothrix schenckii = assay: Antifungal MIC by serial agar dilution method; format: cell-based; settings: strain IF08158
Protocol: as §3

Cryptococus neoformans = assay: Antifungal MIC by serial agar dilution method; format: cell-based; settings: Cryptococcus neoformans
Protocol: as §3

Fusarium moniliforme = assay: Antifungal MIC by serial agar dilution method; format: cell-based; settings: Fusarium verticillioides; strain A2284
Protocol: as §3

Candida albicans = assay: Antifungal MIC by serial agar dilution method; format: cell-based
Protocol: as §3

Aspergillus flavus = assay: Antifungal MIC by serial agar dilution method; format: cell-based; settings: strain FA21436
Protocol: as §3

Blastomyces dermatidis = assay: Antifungal MIC by serial agar dilution method; format: cell-based; settings: strain IF08144
Protocol: as §3

Aspergillus fumigatus = assay: Antifungal MIC by serial agar dilution method; format: cell-based
Protocol: as §3

[7] = tested on: Trichophyton mentagrophytes; assay: Antifungal MIC by serial agar dilution method; format: cell-based
Protocol: as §3

Mucor spinosus = assay: Antifungal MIC by serial agar dilution method; format: cell-based; settings: strain IF05317
Protocol: as §3

Solubility = format: physicochemical
[8] = tested on: DNA synthesis in B16-F10 melanoma cells; assay: Inhibition of macromolecule synthesis in B16-F10 melanoma cells: DNA; format: cell-based, murine; settings: for IC50: Mus musculus, B16-F10, 3H-thymidine, 3.5 hours
Protocol: as §2

Gram-negative bacteria = assay: Antibacterial activity by serial agar dilution method; format: cell-based; settings: at 100 mcg/ml
Protocol: as §3

Gram-positive bacteria = assay: as above; format: cell-based; settings: at 100 mcg/ml
Protocol: as §3

[9] = tested on: protein synthesis in B16-F10 melanoma cells; assay: Inhibition of macromolecule synthesis in B16-F10 melanoma cells: protein; format: cell-based, murine; settings: Mus musculus, 3H-leucine, 4 hours
Protocol: as §2

Piricularia oryzae = assay: microbe, parasite or virus in culture; format: cell-based
[10] = Trichophyton mentagrophytes, strain D155, read-out: MIC

With `C/C(=C\C(C)C(=O)CC(O)CC1CC(=O)NC(=O)C1)C1OC(=O)CCCCCCCCC1C` (stereo not shown) [hexahydro-BU-4146T] the cytotoxicity ([1]; in words) was “weak cytotoxicity” and the “cytotoxicity, times weaker than that of BU-4146T” value ([1]; versus BU-4146T) was “about one hundred”.
With `C/C(=C\C(C)C(=O)CC(O)CC1CC(=O)NC(=O)C1)C1OC(=O)/C=C/CC/C=C/C=C\C1C` (stereo not shown) [BU-4146T] the “IC50 values, times superior to those of mitomycin C” value [2] was 20-60 times, the IC50 [3] was 4.2 µg/mL (≈ 9.18 µM) and the “antifungal activity, times more potent than streptimidone” value (fungi) was 30-100 times. For the same compound, the IC50 [4] was 0.047 µg/mL (≈ 0.103 µM), the IC50 [5] was 0.03 µg/mL (≈ 0.0656 µM) and the IC50 [6] was 0.014 µg/mL (≈ 0.0306 µM). It also gave an MIC (Petriellidium boydii) of 3.1 µg/mL (≈ 6.77 µM), an MIC (Sporothrix schenckii) of 100 µg/mL (≈ 219 µM) and an MIC (Cryptococus neoformans; strain D49) of 3.1 µg/mL (≈ 6.77 µM). The MIC (Cryptococus neoformans; strain IAM4514) was 3.1 µg/mL (≈ 6.77 µM), the MIC (Fusarium moniliforme) was 0.8 µg/mL (≈ 1.75 µM) and the MIC (Candida albicans; strain A9540) was > 100 µg/mL. For the same compound, the MIC (Candida albicans; strain IAM4888) was > 100 µg/mL, the MIC (Aspergillus flavus) was 3.1 µg/mL (≈ 6.77 µM) and the MIC (Blastomyces dermatidis) was 12.5 µg/mL (≈ 27.3 µM). For the same compound, the MIC (Aspergillus fumigatus; strain IAM2034) was 1.6 µg/mL (≈ 3.5 µM), the MIC (Aspergillus fumigatus; strain IAM2530) was 0.8 µg/mL (≈ 1.75 µM) and the MIC [7, 10] was 100 µg/mL (≈ 219 µM). The MIC ([7]; strain No. 4329) was 100 µg/mL (≈ 219 µM), the MIC (Mucor spinosus) was 1.6 µg/mL (≈ 3.5 µM) and the solubility in n-hexane (Solubility; n-hexane) was “practically insoluble”. The “solubility in acetonitrile, n-butanol, methanol, ethyl acetate, chloroform and dimethyl sulfoxide” value (Solubility; organic solvents) was “readily soluble”, the solubility in water (Solubility; water) was “practically insoluble” and the IC50 [8] was 0.023 µg/mL (≈ 0.0503 µM). The “potency in DNA and protein synthesis, times higher than in RNA synthesis” value ([8]; in terms of IC50, DNA and protein versus RNA) was ~200 times, the “inhibitory activity against Gram-negative bacteria” value (Gram-negative bacteria) was “did not show inhibitory activity” and the “inhibitory activity against Gram-positive bacteria” value (Gram-positive bacteria) was “did not show inhibitory activity”. It also gave an IC50 [9] of 0.024 µg/mL (≈ 0.0525 µM) and an MIC (Piricularia oryzae) of 3.1 µg/mL (≈ 6.77 µM).
In the case of `C=C/C(C)=C/[C@H](C)C(=O)C[C@H](O)CC1CC(=O)NC(=O)C1` [Streptimidone, reference compound], the MIC (Petriellidium boydii) is reported as > 100 µg/mL, the MIC (Sporothrix schenckii) is reported as > 100 µg/mL and the MIC (Cryptococus neoformans; strain D49) is reported as 50 µg/mL (≈ 170 µM). For the same compound, the MIC (Cryptococus neoformans; strain IAM4514) was 50 µg/mL (≈ 170 µM), the MIC (Fusarium moniliforme) was 50 µg/mL (≈ 170 µM) and the MIC (Candida albicans; strain A9540) was > 100 µg/mL. For the same compound, the MIC (Candida albicans; strain IAM4888) was > 100 µg/mL, the MIC (Aspergillus flavus) was > 100 µg/mL and the MIC (Blastomyces dermatidis) was > 100 µg/mL. The MIC (Aspergillus fumigatus; strain IAM2034) was > 100 µg/mL, the MIC (Aspergillus fumigatus; strain IAM2530) was > 100 µg/mL and the MIC [7, 10] was > 100 µg/mL. For the same compound, the MIC ([7]; strain No. 4329) was > 100 µg/mL, the MIC (Mucor spinosus) was > 100 µg/mL and the MIC (Piricularia oryzae; read-out: MIC) was > 100 µg/mL.
Work on `CO[C@@]12[C@H](COC(N)=O)C3=C(C(=O)C(C)=C(N)C3=O)N1C[C@@H]1N[C@@H]12` [Mitomycin C, reference compound] yielded an IC50 [3] of 11 µg/mL (≈ 32.9 µM), an IC50 [8] of 1.6 µg/mL (≈ 4.79 µM) and an IC50 [9] of 60 µg/mL (≈ 179 µM).
